# Laboratory results published in patent US8604202B2, “Thienopyridone derivatives as AMP-activated protein kinase (AMPK) activators” (Merck Patent GmbH, priority 2008, dated 2013).
# Assays:
# [1] = tested on: H-2 Kb cells; assay: Glucose uptake in H-2 Kb cells (in vitro cellular test); type: cell-based, mouse; details: differentiated H-2 Kb muscle cells, 4 hours incubation, 2-deoxy-D-[3H]glucose 10 min; for EC (glucose uptake equal or higher to insulin 170 nM): Mus musculus, read-out: activity: Concentration of compound for a glucose uptake equal or higher to glucose uptake induced by insulin (170 nM)
# Procedure: The following cellular test allows the determination of the effect of AMPK activators such as compounds of formula (I) onto glucose uptake in a muscle cellular model.
# H-2 Kb cells derived from heterozygous H-2 Kb tsA58 transgenic mouse were grown in 24-well in plates coated with matrigel and were cultured at 33° C. for 4 days under permissive conditions, as described previously by Fryer et al. (Diabetes 49 (12): 1978, 2000).
# For differentiation in muscle, cells were switched to non-permissive culture conditions (37° C. in the absence of interferon-γ). After 3 days, cells were incubated for 4 hours in DMEM 1 g/l glucose culture medium containing different concentrations of the tested molecules. Then glucose uptake was measured by incubating the cells for 10 min with radiolabelled 2-deoxy-D-[1, 2 ^3H] glucose. Glucose uptake was terminated by rapidly washing the plates 2 times with ice-cold NaCl 0.9%. The cells were then solubilized in 0.1N NaOH for 30 min. Radioactivity was determined by liquid scintillation counting.
# Activity table III: Concentration of compound (1) for a glucose uptake equal or higher to glucose uptake induced by insulin (170 nM)
# [2] = molecular target: T1, AMPK protein (recombinant α1β1γ2) (Homo sapiens, UniProt Q13131+Q9Y478); assay: AMPK enzymatic activity (Delfia, AMARA peptide); type: biochemical; details: compound 30 μM vs AMP 30 μM; 125 μM ATP; 30 min room temperature; ratio 90% or higher = direct activator
# T1 construct: made in house; host or cells: E. coli
# Procedure: The following biological test allows the determination of the efficacy of such compounds of formula (I) onto AMPK protein (recombinant α1β1γ2).
# Human recombinant AMPK enzyme was expressed in E. Coli and was reactivated in vitro by LKB1 prior to enzyme activity determination.
# AMPK enzyme activities were assayed by using A Delfia technology. AMPK enzyme activities were carried out in microtiter plates (50 mM Hepes buffer, pH 7.4 with 125 μM ATP respectively) in the presence of a synthetic peptide substrate (AMARAASAAALARRR, the “AMARA” peptide) and activators in serial dilutions. Reactions were initiated by the addition of AMPK (50-100 ng). Following mixing, the plates were incubated for 30 min at room temperature. Enzyme activity was assayed by using an anti-phosphoserine antibody to measure the quantity of phosphate incorporated into the AMARAA.
# Ratio between the % of control (basal activity) of compound of formula (I) at 30 μM and the % of control (basal activity) of AMP (natural substrate) at 30 μM. Compounds of formula (I) in the table II are considered as direct activator of AMPK if the ratio is 90% or higher.
# T1 sequence (Q13131 whole entry): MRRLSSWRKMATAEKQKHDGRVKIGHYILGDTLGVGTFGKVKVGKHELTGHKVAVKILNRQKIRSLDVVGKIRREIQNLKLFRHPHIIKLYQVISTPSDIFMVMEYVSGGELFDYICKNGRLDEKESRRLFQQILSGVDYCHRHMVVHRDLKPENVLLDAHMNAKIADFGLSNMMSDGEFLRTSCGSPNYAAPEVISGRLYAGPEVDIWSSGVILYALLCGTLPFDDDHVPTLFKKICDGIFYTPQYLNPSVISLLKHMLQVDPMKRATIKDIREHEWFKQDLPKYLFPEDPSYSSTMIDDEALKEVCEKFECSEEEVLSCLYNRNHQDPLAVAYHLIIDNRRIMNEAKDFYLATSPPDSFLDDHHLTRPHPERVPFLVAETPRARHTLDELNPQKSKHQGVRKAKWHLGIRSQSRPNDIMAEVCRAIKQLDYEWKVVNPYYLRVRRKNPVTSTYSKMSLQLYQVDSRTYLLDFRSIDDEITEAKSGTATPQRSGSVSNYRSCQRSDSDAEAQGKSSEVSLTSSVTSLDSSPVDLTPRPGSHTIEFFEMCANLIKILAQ
# T1 sequence (Q9Y478 whole entry): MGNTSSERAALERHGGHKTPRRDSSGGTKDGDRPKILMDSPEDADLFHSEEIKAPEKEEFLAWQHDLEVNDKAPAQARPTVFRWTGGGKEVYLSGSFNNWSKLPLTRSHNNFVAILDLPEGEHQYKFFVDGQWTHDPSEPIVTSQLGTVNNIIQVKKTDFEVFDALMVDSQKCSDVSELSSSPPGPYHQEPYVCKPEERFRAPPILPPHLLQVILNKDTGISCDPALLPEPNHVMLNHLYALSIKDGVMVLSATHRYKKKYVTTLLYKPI
# T1 sequence (Q9UGJ0 whole entry partner): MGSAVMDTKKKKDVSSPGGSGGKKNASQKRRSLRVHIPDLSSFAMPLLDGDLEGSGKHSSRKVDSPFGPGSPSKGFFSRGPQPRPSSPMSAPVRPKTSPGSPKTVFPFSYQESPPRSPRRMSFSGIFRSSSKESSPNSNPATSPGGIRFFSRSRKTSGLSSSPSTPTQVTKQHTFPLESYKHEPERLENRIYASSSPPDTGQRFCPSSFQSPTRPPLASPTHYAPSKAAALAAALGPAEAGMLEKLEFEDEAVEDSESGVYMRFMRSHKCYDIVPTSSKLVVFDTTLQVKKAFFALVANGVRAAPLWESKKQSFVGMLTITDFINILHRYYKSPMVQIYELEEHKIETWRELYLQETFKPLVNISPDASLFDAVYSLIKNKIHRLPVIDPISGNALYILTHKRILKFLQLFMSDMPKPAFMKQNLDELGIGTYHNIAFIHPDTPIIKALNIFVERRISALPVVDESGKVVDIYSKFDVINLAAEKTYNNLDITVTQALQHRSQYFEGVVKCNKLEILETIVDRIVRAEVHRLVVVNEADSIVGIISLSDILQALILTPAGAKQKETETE
SMILES,EC (glucose uptake equal or higher to insulin 170 nM) [1] [µM],activity: Ratio between the % of control (basal activity) of compound of formula (I) at 30 μM and the % of control (basal activity) of AMP at 30 μM [2] [%],activity: Concentration of compound for a glucose uptake equal or higher to glucose uptake induced by insulin (170 nM) [1]
"Cc1ccccc1-c1ccc(-c2csc3[nH]c(=O)c(-c4ccccc4)c(O)c23)cc1 [Compound 7, 4-hydroxy-3-(2′-methylbiphenyl-4-yl)-5-phenyl-6,7-dihydro-thieno[2,3-b]pyridin-6-one]",> 10,141,–
"Cc1cccc(-c2ccc(-c3csc4[nH]c(=O)c(-c5ccccc5)c(O)c34)cc2)c1 [Compound 11, 4-hydroxy-3-(3′-methylbiphenyl-4-yl)-5-phenyl-6,7-dihydro-thieno[2,3-b]pyridin-6-one]",> 10,150,–
"Cc1cccc(-c2ccc(-c3csc4[nH]c(=O)c(-c5cccnc5)c(O)c34)cc2)c1 [Compound 36, 4-hydroxy-3-(3′-methylbiphenyl-4-yl)-5-pyridin-3-yl-6,7-dihydro-thieno[2,3-b]pyridin-6-one]",> 10,156,–
"COc1ccccc1-c1ccc(-c2csc3[nH]c(=O)c(-c4ccccc4)c(O)c23)cc1 [Compound 2, 4-hydroxy-3-(2′-methoxybiphenyl-4-yl)-5-phenyl-6,7-dihydro-thieno[2,3-b]pyridin-6-one]",> 10,158,–
"O=c1[nH]c2scc(-c3ccc(-c4ccccc4O)cc3)c2c(O)c1-c1ccccc1 [Compound 4, 4-hydroxy-3-(2′-hydroxybiphenyl-4-yl)-5-phenyl-6,7-dihydro-thieno[2,3-b]pyridin-6-one]",> 10,126,–
"N#Cc1ccc(-c2c(O)c3c(-c4ccc(-c5ccccc5)cc4)csc3[nH]c2=O)cc1 [Compound 22, 3-biphenyl-4-yl-5-(4-cyanophenyl)-4-hydroxy-6,7-dihydro-thieno[2,3-b]pyridin-6-one]",> 10,152,–
"O=c1[nH]c2scc(-c3ccc(-c4ccccc4)cc3)c2c(O)c1-c1ccccc1 [Compound 1, 3-biphenyl-4-yl-4-hydroxy-5-phenyl-6,7-dihydro-thieno[2,3-b]pyridin-6-one]",> 10,130,–
"COc1ccccc1-c1ccc(-c2c(Cl)sc3[nH]c(=O)c(-c4ccccc4)c(O)c23)cc1 [Compound 3, 2-chloro-4-hydroxy-3-(2′-methoxybiphenyl-4-yl)-5-phenyl-6,7-dihydro-thieno[2,3-b]pyridin-6-one]",–,111,** (concentration of compound (I) ≦10 microMolar)
"COc1cc(-c2csc3[nH]c(=O)c(-c4ccccc4)c(O)c23)ccc1-c1cccc(CO)c1 [Compound 55, 4-hydroxy-3-(3′-hydroxymethyl-2-methoxybiphenyl-4-yl)-5-phenyl-6,7-dihydro-thieno[2,3-b]pyridin-6-one]",–,160,–
"O=c1[nH]c2scc(-c3ccc(-c4cccc(O)c4)cc3)c2c(O)c1-c1ccccc1 [Compound 9, 4-hydroxy-3-(3′-hydroxybiphenyl-4-yl)-5-phenyl-6,7-dihydro-thieno[2,3-b]pyridin-6-one]",> 10,120,–
"N#Cc1cccc(-c2ccc(-c3csc4[nH]c(=O)c(-c5ccccc5)c(O)c34)cc2)c1 [Compound 17, 3-(3′-cyanobiphenyl-4-yl)-4-hydroxy-5-phenyl-6,7-dihydro-thieno[2,3-b]pyridin-6-one]",–,116,–
"O=c1[nH]c2sc(Cl)c(-c3ccc(-c4ccccc4O)cc3)c2c(O)c1-c1ccccc1 [Compound 5, 2-chloro-4-hydroxy-3-(2′-hydroxybiphenyl-4-yl)-5-phenyl-6,7-dihydro-thieno[2,3-b]pyridin-6-one]",–,138,–
"COc1cc(-c2csc3[nH]c(=O)c(-c4ccccc4)c(O)c23)ccc1-c1ccc(O)cc1 [Compound 48, 4-hydroxy-3-(4′-hydroxy-2-methoxybiphenyl-4-yl)-5-phenyl-6,7-dihydro-thieno[2,3-b]pyridin-6-one]",–,264,–
"O=c1[nH]c2scc(-c3ccc(-c4ccc(F)cc4)cc3)c2c(O)c1-c1ccncc1 [Compound 23, 3-(4′-fluorobiphenyl-4-yl)-4-hydroxy-5-pyridin-4-yl-6,7-dihydro-thieno[2,3-b]pyridin-6-one]",–,163,–
"O=c1[nH]c2scc(-c3ccc(-c4cccc(F)c4)cc3)c2c(O)c1-c1cccnc1 [Compound 33, 3-(3′-fluorobiphenyl-4-yl)-4-hydroxy-5-pyridin-3-yl-6,7-dihydro-thieno[2,3-b]pyridin-6-one]",–,147,–
"COc1cc(-c2csc3[nH]c(=O)c(-c4ccccc4)c(O)c23)ccc1-c1ccc(C)cc1 [Compound 46, 4-hydroxy-3-(4′-methyl-2-methoxybiphenyl-4-yl)-5-phenyl-6,7-dihydro-thieno[2,3-b]pyridin-6-one]",–,124,–
"O=c1[nH]c2scc(-c3ccc(-c4ccccc4)cc3)c2c(O)c1-c1ccncc1 [Compound 26, 3-biphenyl-4-yl-4-hydroxy-5-pyridin-4-yl-6,7-dihydro-thieno[2,3-b]pyridin-6-one]",–,258,–
"COc1cc(-c2csc3[nH]c(=O)c(-c4ccccc4)c(O)c23)ccc1-c1ccc(C(=O)O)cc1 [Compound 52, 4′-(4-hydroxy-6-oxo-5-phenyl-6,7-dihydro-thieno[2,3-b]pyridin-3-yl)-2′-methoxybiphenyl-4-carboxylic acid]",–,219,–
"O=C(O)c1ccc(-c2ccc(-c3csc4[nH]c(=O)c(-c5ccccc5)c(O)c34)cc2O)cc1 [Compound 53, 2′-hydroxy-4′-(4-hydroxy-6-oxo-5-phenyl-6,7-dihydro-thieno[2,3-b]pyridin-3-yl)biphenyl-4-carboxylic acid]",–,376,–
"Cc1ccc(-c2ccc(-c3csc4[nH]c(=O)c(-c5ccccc5)c(O)c34)cc2)cc1 [Compound 14, 4-hydroxy-3-(4′-methylbiphenyl-4-yl)-5-phenyl-6,7-dihydro-thieno[2,3-b]pyridin-6-one]",–,176,–
"O=c1[nH]c2scc(-c3ccc(-c4cccc(F)c4)cc3)c2c(O)c1-c1ccccc1 [Compound 10, 3-(3′-fluorobiphenyl-4-yl)-4-hydroxy-5-phenyl-6,7-dihydro-thieno[2,3-b]pyridin-6-one]",–,153,–
